Six molecules from patent publication US20260265300A1, “TARGETING PRAC1 IN STEROID HORMONE DRIVEN CANCER” (Fred Hutchinson Cancer Center, priority 2023, published 2026) can be followed below.

“Also recorded” adds a separate entry of the source. Read-outs that look alike come from different tables or passages of the source.

Data set [1] relates to LNCaP-abl cells. The data set can be described thus: Cell viability of LNCaP-abl cells exposed to PRAC1 peptides (CellTiter-Blue, 72 hours). In kind it is cell-based. Particulars: increasing concentrations of peptide. As to the method: (§1) PRAC1-negative LNCaP-abl cells were grown and exposed to increasing concentrations of the cell-permeable peptides, and cell viability was measured after 72 hours using CellTiter-Blue® (Patel et al., Cancer Res. Commun. 2(5):277-285 2022. doi: 10.1158/2767-9764.crc-21-0156. Epub 2022 May 2). […] The PRAC-F6 peptide was further tested for cell permeability.
Cell viability of androgen receptor negative and androgen receptor positive cells was tested in vitro. The androgen positive cell lines LNCaP and LNCaP-abl and the androgen receptor negative cell lines PC3 and DU145 were incubated with the PRAC-F6, carboxy terminal peptide including the TAT cell penetration peptide. Cell viability was measured after 72 hours using CellTiter-Blue®.
LNCaP-abl cells were incubated with increasing concentrations of PRAC1 peptides, and cell viability was determined after 72 hours using CellTiter-Blue®. […]

In a further data set the target is T1, full-length AR (Homo sapiens, UniProt P10275).
T1 construct: made in house
T1 sequence (P10275 1-920): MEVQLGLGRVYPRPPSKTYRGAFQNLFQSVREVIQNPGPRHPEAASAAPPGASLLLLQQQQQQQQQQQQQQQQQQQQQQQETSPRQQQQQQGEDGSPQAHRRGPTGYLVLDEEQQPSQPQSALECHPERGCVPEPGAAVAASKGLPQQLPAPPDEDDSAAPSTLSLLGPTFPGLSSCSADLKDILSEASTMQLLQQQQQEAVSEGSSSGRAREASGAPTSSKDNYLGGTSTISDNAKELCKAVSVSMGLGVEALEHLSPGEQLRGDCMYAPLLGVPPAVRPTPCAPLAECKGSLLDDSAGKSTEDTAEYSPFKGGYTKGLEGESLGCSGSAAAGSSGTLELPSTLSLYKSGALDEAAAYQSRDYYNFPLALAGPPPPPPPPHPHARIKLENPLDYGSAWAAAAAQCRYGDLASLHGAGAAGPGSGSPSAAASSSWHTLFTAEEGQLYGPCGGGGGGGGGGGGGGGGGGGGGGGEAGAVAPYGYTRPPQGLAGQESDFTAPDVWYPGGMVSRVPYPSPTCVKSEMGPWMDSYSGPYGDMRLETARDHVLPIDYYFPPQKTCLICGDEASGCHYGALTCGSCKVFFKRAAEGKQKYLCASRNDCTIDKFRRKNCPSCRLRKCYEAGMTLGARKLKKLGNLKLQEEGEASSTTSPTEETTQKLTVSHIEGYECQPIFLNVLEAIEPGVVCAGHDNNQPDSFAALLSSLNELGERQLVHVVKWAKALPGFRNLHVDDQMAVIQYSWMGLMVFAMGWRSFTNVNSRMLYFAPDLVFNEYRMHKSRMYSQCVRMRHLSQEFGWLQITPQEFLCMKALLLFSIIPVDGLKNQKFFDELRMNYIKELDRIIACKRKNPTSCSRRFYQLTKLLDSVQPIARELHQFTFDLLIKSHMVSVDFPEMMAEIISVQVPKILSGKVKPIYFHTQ
The data set can be described thus: Binding to purified full-length AR and effect on its DNA binding activity. The class given is biochemical.

The target in a further data set is T2, AR LBD (Homo sapiens, UniProt P10275).
T2 sequence (P10275 669-900 limits assumed): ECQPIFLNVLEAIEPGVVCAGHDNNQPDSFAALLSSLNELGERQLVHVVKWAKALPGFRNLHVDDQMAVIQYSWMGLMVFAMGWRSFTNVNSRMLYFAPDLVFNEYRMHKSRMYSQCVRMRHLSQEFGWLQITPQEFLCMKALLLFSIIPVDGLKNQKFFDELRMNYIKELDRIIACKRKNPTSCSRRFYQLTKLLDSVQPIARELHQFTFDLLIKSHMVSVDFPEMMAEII
The data set can be described thus: Recombinant protein-based binding assay by surface plasmon resonance. The note with it: highly stringent conditions (0.5M NaCl).

Data set [2] has as its system LNCaP-abl cells. Particulars: N-terminally FITC-labeled peptide, flow cytometry. On the procedure:
as §1

The test system of data set [3] is human prostate cancer LAPC4-CR cells. As to the kind of experiment: In vivo prostate cancer xenograft model (LAPC4-CR in castrated NSG mice). Particulars: castrated male NSG mice, intraperitoneally daily, versus scrambled control peptide. As to the method:
The peptide was also tested in an in vivo in prostate cancer xenograft model. Male NOD SCID gamma (NSG) mice were chemically castrated by subcutaneous injection of degarelix. Mice were then engrafted with PRAC1-negative human prostate cancer LAPC4-CR cells. When tumors reached palpable size, PRAC1 peptide PRAC-F6 or a scrambled control peptide (sc) were delivered intraperitoneally daily. Tumor size was measured by caliper.

A further data set relates to PC3. The data set can be described thus: Cell viability of androgen receptor negative PC3 cells (CellTiter-Blue, 72 hours). The class given is cell-based. The note with it: PC3 (AR negative). On the procedure:
(§2) Cell viability of androgen receptor negative and androgen receptor positive cells was tested in vitro. The androgen positive cell lines LNCaP and LNCaP-abl and the androgen receptor negative cell lines PC3 and DU145 were incubated with the PRAC-F6, carboxy terminal peptide including the TAT cell penetration peptide.

The test system of the next data set is LNCaP. As to the kind of experiment: Cell viability of androgen receptor positive LNCaP cells (CellTiter-Blue, 72 hours). In kind it is cell-based. The note with it: LNCaP (AR positive). As to the method:
as §2

In the next data set the test system is DU145. As to the kind of experiment: Cell viability of androgen receptor negative DU145 cells (CellTiter-Blue, 72 hours). The note with it: DU145 (AR negative). The class given is cell-based. On the procedure:
as §2

The next data set has as its system MCF7. As to the kind of experiment: Cell viability of MCF7 breast cancer cells (CellTiter-Blue). In kind it is cell-based. Particulars: MCF7 (estrogen and progesterone receptor positive), relative to scrambled control peptide. An excerpt: Estrogen and progesterone receptor positive breast cancer cell line MCF7 with PRAC1 peptide […] FIG. 8A.
Data set [4] concerns LNCaP-abl cells. The data set can be described thus: Proliferation of LNCaP-abl cells with enzalutamide by live cell imaging. Particulars: 10 μM enzalutamide. In kind it is cell-based. As to the method:
Resistance to ARSI therapy is a major driver of PC related mortality. In this example, PRAC1-negative LNCaP-abl cells were grown in fully supplemented growth media (RPMI plus 10% FBS) in the absence or presence of 10 μM enzalutamide. Cell proliferation was determined longitudinally by live cell imaging using a Cytation™ 5 imaging instrument. […] Restoring PRAC1 function can result in re-sensitization of ARSI therapy (FIG. 4).

As for “PPRVLFSLARKHLLRKKRRQRRRG [SEQ ID NO:27, isoleucine-to-alanine substitution mutant]”, the cell viability entry in the data set on LNCaP-abl cells [1] is on record as “no effect on cell viability”.

In the case of “MLACKVRQAGFWSPPLQREQRCCAPISQIKDRPILLPPRVLFSLIRKHLL (listed as Homo sapiens) [PRAC1, PRAC1 protein encoded by ORF1 of PRAC1 gene]”, in the data set with full-length AR, the “binding to full-length AR and change of its DNA binding activity” value is “specifically binds and alters full-length AR's DNA binding activity”. The “binding to AR LBD” value in the data set with AR LBD is “specifically binds the AR LBD”.

“LFSLIRKHLLRKKRRQRRRG [PRAC1-F6, C-terminus of PRAC1 linked to the cell permeable TAT peptide]”: the “peptide uptake (cellular internalization)” value is “rapid cellular internalization” in the data set with LNCaP-abl cells [2] (listed as PRAC-F6) and “uptake” with LNCaP-abl cells [2] (listed as SEQ ID NO:17). Moreover, the “tumor growth (tumor size by caliper)” value in data set [3] is recorded as “suppression of LAPC4-CR tumor growth”; in data set [3] (listed as PRAC-F6), “suppression of tumor growth”. Moreover, the cell viability result is recorded as “Only AR-expressing cell lines show profound dose-dependent decrease in cell viability” in the data set on PC3; “only AR-expressing cell lines show a profound loss of viability” in the data set on PC3 (listed as PRAC-F6); “biologically active in reducing cell viability; also recorded: profound dose-dependent decrease in cell viability” in the data set on LNCaP-abl cells [1]; “profound loss of viability” in the data set on LNCaP-abl cells [1] (listed as PRAC-F6); “profound dose-dependent decrease in cell viability” in the data set on LNCaP; “profound loss of viability” in the data set on LNCaP (listed as PRAC-F6). The cell viability result is given as “Only AR-expressing cell lines show profound dose-dependent decrease in cell viability” with DU145 and “only AR-expressing cell lines show a profound loss of viability” in the data set on DU145 (listed as PRAC-F6).

In the case of “PPRVLFSLIAKHLLRKKRRQRRRG [SEQ ID NO:28, arginine-to-alanine mutant]”, the cell viability entry in the data set on LNCaP-abl cells [1] is on record as “attenuated activity on cell viability”.

In the case of PPRVLFSLIRKHLLRKKRRQRRRG [SEQ ID NO:18], the results for the cell viability result with LNCaP-abl cells [1] and in the data set with MCF7 were “profound anti-tumor cell activity” and “dose-dependent decrease in cell viability; also recorded: dose-dependent decrease is cell viability”, respectively.

For the molecule `CNC(=O)c1ccc(N2C(=S)N(c3ccc(C#N)c(C(F)(F)F)c3)C(=O)C2(C)C)cc1F` [enzalutamide], the “cell proliferation / sensitivity to enzalutamide” value is “resistant to enzalutamide across a broad concentration range” in the data set on LNCaP-abl cells [4] (LNCaP-abl cells transduced with control vector (RFP), RPMI plus 10% FBS); “sensitization to enzalutamide and significant growth suppression; also recorded: restoration of sensitivity to this drug” in the data set on LNCaP-abl cells [4] (LNCaP-abl cells with re-expression of PRAC1 (lentiviral ORF1)).
